Laboratory results published in paper PMC12608647, “Synthesis and Activity Evaluation of Novel Benzoxazepinone Derivatives as Potential Inhibitors of Glycogen Phosphorylase” (Molecules, 2025).
“Also recorded” adds a separate entry of the source.

How the values were obtained:
HL-7702 cells = assay: Glycogenolysis inhibition assay in HL-7702 cells; assay type: cell-based, human; details: for IC50: Homo sapiens, L02, 1 h, HL-7702 cells, 0.3 nM glucagon, 60 min, mean ± SD of three determinations
Method: To evaluate the effects of the synthesized compounds on glycogen degradation, compounds 8a–8i were subjected to a glycogenolysis assay in HL-7702 cells.
The inhibitory effect on hepatic glycogenolysis was quantitatively assessed by colorimetry using a microplate reader (Bio-Rad Laboratories) and anthrone reagent (Sigma-Aldrich, St. Louis, MO, USA), as previously described. Primary human liver HL-7702 cells (National Collection of Authenticated Cell Cultures) were treated with test compounds or DMSO solvent (final concentration, 0.10%) and then co-incubated with 0.3 nM glucagon for 60 min. After termination of the reaction by centrifugation, the cells were digested with 30% potassium hydroxide, and the glycogen content was determined. When culturing cells to concentration, a 6-well plate is used for cell culture, with a cell seeding density of 10^6 cells per well. The condition is set at a constant temperature of 37 degrees Celsius. The repetition count is three times. The activity assessment criteria were based on the positive drug psn-357 and the parent nuclear compound 5d. IC50 values were estimated by fitting the inhibition data to a logistic regression equation to generate dose–response curves. Analysis was conducted using SPSS Statistics 17.0. In vitro data are presented as mean ± SD, and in vivo data as mean ± SEM. Differences between two groups were assessed using Student’s t-test, and comparisons among three or more groups using ANOVA. A p-value < 0.05 was considered significant.

[1] = target: T1, rabbit muscle glycogen phosphorylase a (RMGPa) (Oryctolagus cuniculus, UniProt P00489); assay: RMGPa inhibition assay (phosphate release from glucose-1-phosphate); assay type: biochemical; details: for IC50: mean ± SD of three determinations
T1 sequence (P00489 2-843 limits assumed): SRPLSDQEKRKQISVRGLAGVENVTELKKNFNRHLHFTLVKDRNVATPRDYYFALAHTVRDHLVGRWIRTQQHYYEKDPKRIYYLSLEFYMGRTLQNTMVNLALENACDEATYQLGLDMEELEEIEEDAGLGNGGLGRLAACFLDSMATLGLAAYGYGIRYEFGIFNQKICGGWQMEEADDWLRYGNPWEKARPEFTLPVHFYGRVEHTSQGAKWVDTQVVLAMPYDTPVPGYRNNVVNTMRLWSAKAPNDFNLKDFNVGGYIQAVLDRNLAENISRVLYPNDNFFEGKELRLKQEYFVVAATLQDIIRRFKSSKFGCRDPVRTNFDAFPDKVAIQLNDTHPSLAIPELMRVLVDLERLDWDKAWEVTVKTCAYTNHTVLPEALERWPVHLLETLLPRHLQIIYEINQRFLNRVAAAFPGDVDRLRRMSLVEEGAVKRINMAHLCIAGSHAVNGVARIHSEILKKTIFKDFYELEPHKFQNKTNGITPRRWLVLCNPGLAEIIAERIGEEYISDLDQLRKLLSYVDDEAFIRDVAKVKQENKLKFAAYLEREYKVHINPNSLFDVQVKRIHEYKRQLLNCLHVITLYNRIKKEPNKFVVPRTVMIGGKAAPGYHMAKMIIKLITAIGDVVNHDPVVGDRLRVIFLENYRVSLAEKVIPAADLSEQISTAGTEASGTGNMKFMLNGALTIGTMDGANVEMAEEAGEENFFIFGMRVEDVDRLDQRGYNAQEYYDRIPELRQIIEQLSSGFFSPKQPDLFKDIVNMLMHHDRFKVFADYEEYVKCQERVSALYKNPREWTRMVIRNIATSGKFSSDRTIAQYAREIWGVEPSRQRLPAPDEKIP
Method: The synthesized compounds were evaluated for their inhibitory activity against rabbit muscle glycogen phosphorylase a (RMGPa) according to a previously reported protocol. PSN-357, a compound in phase II clinical trials, was used as a positive control. We also used the parent structure 5d as a positive control (Figure 2).
The inhibitory activity of the test compounds against RMGPa was evaluated using a microplate reader (Bio-Rad Laboratories, Berkeley, CA, USA) according to a previously described method. Briefly, RMGPa activity was determined by measuring the release of phosphate from glucose-1-phosphate, which reflects the direction of glycogen synthesis. Each test compound was dissolved in DMSO and diluted to different concentrations for IC50 determination. The enzyme was added to 100 μL reaction mixtures in 96-well Costar microplates (Corning Inc., Corning, NY, USA) containing 50 mM HEPES (pH 7.2), 100 mM potassium chloride (KCl), 2.5 mM magnesium chloride (MgCl2), 0.5 mM glucose-1-phosphate, 1 mg/mL glycogen, and the test compounds. After incubation at 22 °C for 25 min, 150 μL of a solution containing 10 mg/mL ammonium molybdate and 0.38 mg/mL malachite green was added. The absorbance of phosphate was measured at 620 nm. IC50 values were estimated by fitting the inhibition data to a dose–response curve using a logistic regression equation.

Row | SMILES | IC50 (HL-7702 cells) [µM] | IC50 [1] [µM] | RMGPa inhibitory activity relative to PSN-357 ([1]; versus PSN-357) | potency relative to parent structure 5d in HL-7702 cells (HL-7702 cells; versus 5d) | potency relative to PSN-357 in HL-7702 cells (inhibition of glycogen degradation) (HL-7702 cells; versus PSN-357)
1 | O=C(Nc1ccc2c(c1)C(=O)NCCO2)c1cc2cc(Cl)ccc2[nH]1 [Compound 5d, reference compound] | 3.75 ± 2.67 | 0.25 ± 0.05 | – | – | –
2 | COC1COc2ccc(NC(=O)c3cc4cc(Cl)ccc4[nH]3)cc2C(=O)N1 (centres unmarked) [Compound 8a, 5-chloro-N-(3-methoxy-5-oxo-2,3,4,5-tetrahydrobenzo[f][1,4]oxazepin-7-yl)-1H-indole-2-carboxamide] | 8.51 ± 3.99 | 0.21 ± 0.05 | twice as strong | – | –
3 | CCOC1COc2ccc(NC(=O)c3cc4cc(Cl)ccc4[nH]3)cc2C(=O)N1 (centres unmarked) [Compound 8b, 5-chloro-N-(3-ethoxy-5-oxo-2,3,4,5-tetrahydrobenzo[f][1,4]oxazepin-7-yl)-1H-indole-2-carboxamide] | 6.77 ± 0.93 | 1.61 ± 0.41 | – | – | –
4 | CCCOC1COc2ccc(NC(=O)c3cc4cc(Cl)ccc4[nH]3)cc2C(=O)N1 (centres unmarked) [Compound 8c, 5-chloro-N-(5-oxo-3-propoxy-2,3,4,5-tetrahydrobenzo[f][1,4]oxazepin-7-yl)-1H-indole-2-carboxamide] | 5.33 ± 1.39 | – | – | – | –
5 | CCCCOC1COc2ccc(NC(=O)c3cc4cc(Cl)ccc4[nH]3)cc2C(=O)N1 (centres unmarked) [Compound 8d, N-(3-butoxy-5-oxo-2,3,4,5-tetrahydrobenzo[f][1,4]oxazepin-7-yl)-5-chloro-1H-indole-2-carboxamide] | 9.81 ± 1.39 | 0.71 ± 0.25 | – | – | –
6 | CCCCCOC1COc2ccc(NC(=O)c3cc4cc(Cl)ccc4[nH]3)cc2C(=O)N1 (centres unmarked) [Compound 8e, 5-chloro-N-(5-oxo-3-(pentyloxy)-2,3,4,5-tetrahydrobenzo[f][1,4]oxazepin-7-yl)-1H-indole-2-carboxamide] | 15.4 ± 0.89 | 0.88 ± 0.03 | – | – | –
7 | CCCCCCOC1COc2ccc(NC(=O)c3cc4cc(Cl)ccc4[nH]3)cc2C(=O)N1 (centres unmarked) [Compound 8f, 5-chloro-N-(3-(hexyloxy)-5-oxo-2,3,4,5-tetrahydrobenzo[f][1,4]oxazepin-7-yl)-1H-indole-2-carboxamide] | 7.67 ± 1.98 | 0.29 ± 0.1 | – | – | –
8 | O=C(Nc1ccc2c(c1)C(=O)NC(OCc1ccccc1)CO2)c1cc2cc(Cl)ccc2[nH]1 (centres unmarked) [Compound 8g, N-(3-(benzyloxy)-5-oxo-2,3,4,5-tetrahydrobenzo[f][1,4]oxazepin-7-yl)-5-chloro-1H-indole-2-carboxamide] | 1.51 ± 0.21 | 0.62 ± 0.16 | – | twice | threefold increase; also recorded: three times greater
9 | CC(C)CCOC1COc2ccc(NC(=O)c3cc4cc(Cl)ccc4[nH]3)cc2C(=O)N1 (centres unmarked) [Compound 8h, 5-chloro-N-(3-(isopentyloxy)-5-oxo-2,3,4,5-tetrahydrobenzo[f][1,4]oxazepin-7-yl)-1H-indole-2-carboxamide] | 6.99 ± 0.99 | 0.7 ± 0.55 | – | – | –
10 | COCCOC1COc2ccc(NC(=O)c3cc4cc(Cl)ccc4[nH]3)cc2C(=O)N1 (centres unmarked) [Compound 8i, 5-chloro-N-[3-(2-methoxyethoxy)-5-oxo-2,3,4,5-tetrahydrobenzo[f][1,4]oxazepin-7-yl]-1H-indole-2-carboxamide] | > 15.4 | 5.31 ± 0.62 | – | – | –
11 | O=C(N[C@@H](Cc1ccc(F)cc1)C(=O)N1CCC(O)CC1)c1cc2cc(Cl)ncc2[nH]1 [PSN-357, reference compound] | 4.94 ± 0.28 | – | – | – | –
